In patent US8148411B2, “2-hetarylthiazole-4-carboxamide derivatives, their preparation and use as pharmaceuticals” (Bayer Pharma Aktiengesellschaft, priority 2007, dated 2012) one finds EC50 data, which are given here for 14 compounds.

This assay relates to TLR7. Put plainly: TLR-induced cytokine release in human peripheral blood mononuclear cells (PBMC), TNF-alpha by ELISA. The conditions noted are these: human PBMC incubated 18 hours with test substance in presence of TLR7 ligand; TNF-alpha in supernatant by ELISA; read-out: EC50 (TNF-α TLR7). Type of assay: cell-based. The procedure:
TLR-Induced Cytokine Release in Human “Peripheral Blood Mononuclear Cells” (PBMC)
PBMCs isolated from human whole blood are stimulated using a TLR ligand.
The cytokine determination is carried out by means of ELISA kits; a proliferation/cell metabolism determination is carried out using Alamar Blue.
For the cell preparation, about 200 ml of blood are treated with an anticoagulant (e.g. citrate Monovettes). Per Leucosep tube, 15 ml of Histopaque (room temperature, RT) are poured in and forced downwards through the inserted frit by brief initial centrifugation (one minute at 1000×g, RT). 20 ml of blood are added to the tubes prepared in this way and centrifuged at 800×g for 15 minutes (RT). After centrifugation, the following layering results from the top to the bottom:
plasma-PBMC-Histopaque-filter disc-Histopaque-erythrocytes and granulocytes. The supernatant plasma is aspirated. The PBMC are transferred together with the underlying Histopaque to a new 50 ml tube, the contents of two Leucosep tubes always being added to one 50 ml tube. The 50 ml tubes are then filled to 50 ml with PBS. This cell suspension is centrifuged at 300×g (RT) for 10 minutes.
The liquid supernatant is tipped off and the cell pellet is resuspended with a little PBS and subsequently filled to 50 ml with PBS. This washing step is repeated twice. The resulting pellet is taken up in a defined volume of medium (with additives). For the testing of the substances, PBMC are incubated for 18 hours with titrated concentrations of the test substances, e.g. in the presence or absence of TLR7 or TLR9 ligands. On the next day, the supernatants are investigated for the content of TNF-alpha or other cyto- or chemokines by means of specific ELISA. The metabolic activity of the treated cells is determined with the aid of Alamar Blue.

Take `Cc1ccc(C(N)=O)c(NC(=O)c2csc(-c3cccnc3)n2)c1` [Example 1.5, N-[2-(Aminocarbonyl)-5-methylphenyl]-2-(3-pyridinyl)-4-thiazolecarboxamide]: the EC50 was 4.1 µM.
As for `NC(=O)c1ncccc1NC(=O)c1csc(-c2ccncc2)n1` [Example 1.21, 3-[(2-Pyridin-4-ylthiazole-4-carbonyl)amino]pyridine-2-carboxamide], the EC50 amounted to 5.2 µM.
For `Cn1ncc(NC(=O)c2csc(-c3ccncc3)n2)c1C(N)=O` [Example 1.2, N-[5-(Aminocarbonyl)-1-methyl-1H-pyrazol-4-yl]-2-(4-pyridinyl)-4-thiazolecarboxamide] the value was 2.4 µM; for `NC(=O)c1ccncc1NC(=O)c1csc(-c2ccncc2)n1` [Example 1.22, 3-[(2-Pyridin-4-ylthiazole-4-carbonyl)amino]isonicotinamide], 7 µM; for `NC(=O)c1ncccc1NC(=O)c1csc(-c2cccnc2)n1` [Example 1.7, 3-[(2-Pyridin-3-ylthiazole-4-carbonyl)amino]pyridine-2-carboxamide], 1.8 µM.
On to `CC(C)(C)c1cc(NC(=O)c2csc(-c3cccnc3)n2)c(C(N)=O)s1` [Example 1.17, N-[2-(Aminocarbonyl)-5-(1,1-dimethylethyl)-3-thienyl]-2-(3-pyridinyl)-4-thiazolecarboxamide], for which the EC50 is 2.6 µM.
`NC(=O)c1ccccc1NC(=O)c1csc(-c2ccncc2)n1` [Example 1.3, N-[2-(Aminocarbonyl)phenyl]-2-(4-pyridinyl)-4-thiazolecarboxamide]: the EC50 is 1.3 µM.
With `Cc1ccc(NC(=O)c2csc(-c3cccnc3)n2)c(C(N)=O)c1` [Example 1.4, N-[2-(Aminocarbonyl)-4-methylphenyl]-2-(3-pyridinyl)-4-thiazolecarboxamide], the EC50 came to 0.49 µM.
Turning to `NC(=O)c1cc(Cl)ccc1NC(=O)c1csc(-c2cccnc2)n1` [Example 1.6, N-[2-(Aminocarbonyl)-4-chlorophenyl]-2-(3-pyridinyl)-4-thiazolecarboxamide], the EC50 was 30 µM.
On to `Cc1ccc(C(N)=O)c(NC(=O)c2csc(-c3ccc(N)nc3)n2)c1` [Example 2.4, N-[2-(Aminocarbonyl)-5-methylphenyl]-2-(6-aminopyridin-3-yl)thiazole-4-carboxamide], for which the EC50 stood at 1.3 µM.
Regarding `Cc1ccc(C(N)=O)c(NC(=O)c2csc(-c3cnccc3C(F)(F)F)n2)c1` [Example 1.11, N-[2-(Aminocarbonyl)-5-methylphenyl]-2-[4-(trifluoromethyl)-3-pyridinyl]-4-thiazolecarboxamide], the EC50 was 30 µM.
As for `NC(=O)c1ccccc1NC(=O)c1csc(-c2cccnc2)n1` [Example 1.1, N-[2-(Aminocarbonyl)phenyl]-2-(3-pyridinyl)-4-thiazolecarboxamide], the EC50 came out at 0.9 µM.
Consider `NC(=O)c1cc(F)ccc1NC(=O)c1csc(-c2cccnc2)n1` [Example 1.18, N-[2-(Aminocarbonyl)-4-fluorophenyl]-2-(3-pyridinyl)-4-thiazolecarboxamide], for which the EC50 amounted to 1.9 µM.
For `Cc1ccc(C(N)=O)c(NC(=O)c2csc(-c3ccncc3)n2)c1` [Example 1.8, N-[2-(Aminocarbonyl)-5-methylphenyl]-(4-pyridinyl)-4-thiazolecarboxamide] the value was 1.1 µM.
